{"source": "paper PMC7835237", "about": "“Dual mechanism β-amino acid polymers promoting cell adhesion” (Nature Communications, 2021)", "key": {"[1]": {"test_system": "MC3T3-E1 preosteoblast cells", "test": "Cell spreading area on modified surfaces (immunofluorescence analysis of cell morphology)", "type": "cell-based, mouse", "procedure": "The degree of cell spreading on a functionalized glass slide was measured by immunofluorescence analysis. After culture medium was removed, the slide was washed with PBS and then cells on the slide were fixed with 4% paraformaldehyde for 20 min. The slide was washed with PBS thrice and incubated for 5 min with 0.4% triton-X in PBS. Subsequently, the slide was washed with PBS thrice, followed by blocking with 3% bovine serum albumin (BSA) in PBS for 1 h at rt and then incubated with Alexa Fluor-555-conjugated anti-vinculin antibody (1:300 in PBS) overnight at 4 °C. The slide was washed with PBS thrice and incubated for 2 h with FITC-phalloidin (1:200 in PBS) and 4′-6-diamidino-2-phenylindole (DAPI) (5 μg/mL) for 10 min. The slide was washed with PBS thrice and its fluorescent images were collected on a confocal microscope (Nikon A1R, Japan)."}, "[2]": {"test": "Water contact angle of modified surfaces", "type": "physicochemical", "conditions": "modified glass surface, Millipore water drops", "procedure": "The water contact angles of bare glass, OEG8, RGD, and DM50CO50-modified surfaces were measured with a contact angle meter (JC2000D2) from Shanghai Zhongchen Digital Technology Apparatus Co., Ltd. Liquid drops (Millipore water) were delivered to the surface using a microsyringe."}, "[3]": {"test_system": "MC3T3-E1 preosteoblast cells", "test": "Integrin αvβ3 to block RGD, cell adhesion", "type": "cell-based, mouse", "parameters": "unit not given here", "conditions": "for Cell density (figure 5g) / Cell spreading area (figure 5f): - αvβ3: serum-incubated surface without integrin αvβ3, 2 h after seeding; for Supplementary Figure8, cell adhesion on modified surface: - αvβ3", "procedure": "An aliquot of 10 μL α-MEM medium containing 10% FBS was added to each well (formed by a 50-well coverslip on the top of a glass slide) and the slide was incubated in a humidified atmosphere at 37 °C for 2 h[24]. The slide was washed with PBS and incubated with integrin αvβ3 (10 µg/mL in PBS) at 37 °C for 1 h. Then cells at a concentration of 1.5 × 10^5 cells/mL in a serum-free medium were added to each individual well, having bottom surface modified with DM50CO50 or RGD peptide. After the slide was incubated at 37 °C for 2 h, cells in each well were stained with a live/dead staining solution and the fluorescent images were captured under a microscope (Nikon Eclipse Ti-S, Japan) at eight different locations in each well. The collected images were analyzed using the Image-pro plus software."}}, "data": [{"substance": "RGDSPC [cell adhesion gold standard RGD peptide (RGDSPC), attached to surface]", "values": [{"measurement": "Cell area of preosteoblast cells", "setting": "[1]; cultured on modified surface for 3 h, replicate 1", "value": 3956}, {"measurement": "Cell area of preosteoblast cells", "setting": "[1]; cultured on modified surface for 3 h, replicate 2", "value": 3895}, {"measurement": "Cell area of preosteoblast cells", "setting": "[1]; cultured on modified surface for 3 h, replicate 3", "value": 3549}, {"measurement": "Cell area of preosteoblast cells", "setting": "[1]; cultured on modified surface for 24 h, replicate 1", "value": 4800}, {"measurement": "Cell area of preosteoblast cells", "setting": "[1]; cultured on modified surface for 24 h, replicate 2", "value": 4752}, {"measurement": "Cell area of preosteoblast cells", "setting": "[1]; cultured on modified surface for 24 h, replicate 3", "value": 4625}, {"measurement": "Water contact angle", "setting": "[2]", "value": 41, "unit": "°"}, {"measurement": "Cell density (figure 5g)", "setting": "[3]; value 1 of n = 9", "value": 80}, {"measurement": "Cell spreading area (figure 5f)", "setting": "[3]; value 1 of n = 9", "value": 3308.7}, {"measurement": "Cell density (figure 5g)", "setting": "[3]; value 2 of n = 9", "value": 69}, {"measurement": "Cell spreading area (figure 5f)", "setting": "[3]; value 2 of n = 9", "value": 3551.3}, {"measurement": "Cell density (figure 5g)", "setting": "[3]; value 3 of n = 9", "value": 74}, {"measurement": "Cell spreading area (figure 5f)", "setting": "[3]; value 3 of n = 9", "value": 2958.5}, {"measurement": "Cell density (figure 5g)", "setting": "[3]; value 4 of n = 9", "value": 75}, {"measurement": "Cell spreading area (figure 5f)", "setting": "[3]; value 4 of n = 9", "value": 3300.7}, {"measurement": "Cell density (figure 5g)", "setting": "[3]; value 5 of n = 9", "value": 69}, {"measurement": "Cell spreading area (figure 5f)", "setting": "[3]; value 5 of n = 9", "value": 3020}, {"measurement": "Cell density (figure 5g)", "setting": "[3]; value 6 of n = 9", "value": 79}, {"measurement": "Cell spreading area (figure 5f)", "setting": "[3]; value 6 of n = 9", "value": 2866.3}, {"measurement": "Cell density (figure 5g)", "setting": "[3]; value 7 of n = 9", "value": 74}, {"measurement": "Cell spreading area (figure 5f)", "setting": "[3]; value 7 of n = 9", "value": 2910.3}, {"measurement": "Cell density (figure 5g)", "setting": "[3]; value 8 of n = 9", "value": 73}, {"measurement": "Cell spreading area (figure 5f)", "setting": "[3]; value 8 of n = 9", "value": 3174.3}, {"measurement": "Cell density (figure 5g)", "setting": "[3]; value 9 of n = 9", "value": 70}, {"measurement": "Cell spreading area (figure 5f)", "setting": "[3]; value 9 of n = 9", "value": 3494.7}, {"measurement": "Supplementary Figure8, cell adhesion on modified surface", "setting": "[3]; replicate 1", "value": 0.61}, {"measurement": "Supplementary Figure8, cell adhesion on modified surface", "setting": "[3]; replicate 2", "value": 0.2888}, {"measurement": "Supplementary Figure8, cell adhesion on modified surface", "setting": "[3]; replicate 3", "value": 0.3748}]}]}
